Patent publication US9302999B2, “Substituted triazoles as herbicides” (E. I. DU PONT DE NEMOURS AND COMPANY, priority 2012, dated 2016)
Where two headings read alike, the source gives them in different places.

How the values were obtained:
Assay type in all cases: in vivo
[1] = system: rice (Oryza sativa); assay: Test C flooded paddy test: rice; details: scale 0 to 100 (0 no effect, 100 complete control); for plant injury at 62 g/ha / plant injury at 125 g/ha / plant injury at 250 g/ha / plant injury at 31 g/ha: Oryza sativa, read-out: Plant response rating, Rice
Summary of the method: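 2-leaf stage plants; pots flooded 3 cm above soil; compound applied into paddy water, depth maintained. Greenhouse 13–15 d. Visual rating vs controls, 0–100 (0 = no effect, 100 = complete control); dash = no result.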

[2] = system: surinam grass (Brachiaria decumbens); assay: Test C pre-/postemergence: surinam grass; details: Postemergence
Source text: (§1) Seeds of plant species selected from blackgrass (Alopecurus myosuroides), bromegrass, downy (downy bromegrass, Bromus tectorum), foxtail, green (green foxtail, Setaria viridis), ryegrass, Italian (Italian ryegrass, Lolium multiflorum), winter wheat (Triticum aestivum), wild oat (Avena fatua), galium (catchweed bedstraw, Galium aparine), bermudagrass (Cynodon dactylon), surinam grass (Brachiaria decumbens), cocklebur (common cocklebur, Xanthium strumarium), corn (Zea mays), large crabgrass (Digitaria sanguinalis), woolly cupgrass (Eriochloa villosa), foxtail, giant (giant foxtail, Setaria faberii), goosegrass (Eleusine indica), johnsongrass (Sorghum halepense), kochia (Kochia scoparia), lambsquarters (Chenopodium album), morningglory (Ipomoea coccinea), nightshade (eastern black nightshade, Solanum ptycanthum), nutsedge, yellow (yellow nutsedge, Cyperus esculentus), pigweed (Amaranthus retroflexus), ragweed (common ragweed, Ambrosia elation), soybean (Glycine max), common (oilseed) sunflower (Helianthus annuus), Russian thistle (Salsola kali) and velvetleaf (Abutilon theophrasti) were planted into a blend of loam soil and sand and treated preemergence with test chemicals formulated in a non-phytotoxic solvent mixture which included a surfactant.
(§2) At the same time, plants selected from these crop and weed species and also barley (winter barley, Hordeum vulgare), canarygrass (Phalaris minor), chickweed (common chickweed, Stellaria media) windgrass (Apera spica-venti) and deadnettle (henbit deadnettle, Lamium amplexicaule) were planted in pots containing Redi-Earth® planting medium (Scotts Company, 14111 Scottslawn Road, Marysville, Ohio 43041) comprising spaghnum peat moss, vermiculite, wetting agent and starter nutrients and treated with postemergence applications of test chemicals formulated in the same manner. Plants ranged in height from 2 to 18 cm (1- to 4-leaf stage) for postemergence treatments.
(§3) Treated plants and controls were maintained in a greenhouse for 13 to 15 days, after which time all species were compared to controls and visually evaluated. Plant response ratings, summarized in Table C, are based on a scale of 0 to 100 where 0 is no effect and 100 is complete control. A dash (-) response means no test result.

[3] = system: goosegrass (Eleusine indica); assay: Test C pre-/postemergence: goosegrass; details: Postemergence
Source text: as §1, §2, §3

[4] = system: windgrass (Apera spica-venti); assay: Test C postemergence: windgrass
Source text: as §2, §3

[5] = system: Russian thistle (Salsola iberica); assay: Test D pre-/postemergence: Russian thistle; details: Postemergence
Source text: (§4) Seeds of plant species selected from bluegrass (annual bluegrass, Poa annua), blackgrass (Alopecurus myosuroides), canarygrass (Phalaris minor), chickweed (common chickweed, Stellaria media), galium (catchweed bedstraw, Galium aparine), bromegrass, downy (downy bromegrass, Bromus tectorum), field poppy (Papaver rhoeas), field violet (Viola arvensis), foxtail, green (green foxtail, Setaria viridis), deadnettle (henbit deadnettle, Lamium amplexicaule), ryegrass, Italian (Italian ryegrass, Lolium multiflorum), kochia (Kochia scoparia), lambsquarters (Chenopodium album), oilseed rape (Brassica napus), pigweed (Amaranthus retroflexus), Russian thistle (Salsola iberica), chamomile (scentless chamomile, Matricaria inodora), speedwell (bird's-eye speedwell, Veronica persica), barley, spring (spring barley, Hordeum vulgare), wheat, spring (spring wheat, Triticum aestivum), buckwheat, wild (wild buckwheat, Polygonum convolvulus), mustard, wild (wild mustard, Sinapis arvensis), oat, wild (wild oat, Avena fatua), radish, wild (wild radish, Raphanus raphanistrum), windgrass (Apera spica-venti), barley, winter (winter barley, Hordeum vulgare), and wheat, winter (winter wheat, Triticum aestivum) were planted into a silt loam soil and treated preemergence with test chemicals formulated in a non-phytotoxic solvent mixture which included a surfactant. At the same time, these same crop and weed species were planted in pots containing the planting medium comprising spaghnum peat moss, vermiculite, wetting agent and starter nutrients and treated with postemergence applications of the test chemicals formulated in the same manner. Plants ranged in height from 2 to 18 cm (1- to 4-leaf stage).
as §3, with “controlled growth environment” for “greenhouse”, “14” for “13”, “21 days” for “15 days,”, “D,” for “C,”

[6] = system: speedwell (bird's-eye speedwell, Veronica persica); assay: Test D pre-/postemergence: speedwell; details: Postemergence
Source text: as §4
as §3, with “controlled growth environment” for “greenhouse”, “14” for “13”, “21 days” for “15 days,”, “D,” for “C,”

[7] = system: wheat, spring (spring wheat, Triticum aestivum); assay: Test D pre-/postemergence: wheat, spring; details: Postemergence
Source text: as §4
as §3, with “controlled growth environment” for “greenhouse”, “14” for “13”, “21 days” for “15 days,”, “D,” for “C,”

[8] = system: barley, winter (winter barley, Hordeum vulgare); assay: Test D pre-/postemergence: barley, winter; details: Postemergence
Source text: as §4
as §3, with “controlled growth environment” for “greenhouse”, “14” for “13”, “21 days” for “15 days,”, “D,” for “C,”

[9] = Flood (flooded paddy test), 125 g ai/ha, visual rating after 13 to 15 days
[10] = Flood (flooded paddy test), 250 g ai/ha, visual rating after 13 to 15 days
[11] = 16 g ai/ha, scale 0 to 100, 0 no effect, 100 complete control
[12] = 31 g ai/ha, scale 0 to 100 (0 no effect, 100 complete control)
[13] = 62 g ai/ha, scale 0 to 100 (0 no effect, 100 complete control)
[14] = 125 g ai/ha, scale 0 to 100, 0 no effect, 100 complete control
[15] = 250 g ai/ha, scale 0 to 100 (0 no effect, 100 complete control)

COc1nn(-c2ccc(C(F)(F)F)cc2)nc1Cn1ccc(C(F)(F)F)n1 [Compound 17, 4-methoxy-2-[4-(trifluoromethyl)phenyl]-5-[[3-(trifluoromethyl)-1H-pyrazol-1-yl]methyl]-2H-1,2,3-triazole]
plant injury at 62 g/ha ([1]; Flood (flooded paddy test), 62 g ai/ha, visual rating after 13 to 15 days): 15%
plant injury at 125 g/ha [1, 9]: 35%
plant injury at 250 g/ha [1, 10]: 45%
plant injury at 31 g/ha ([1]; Flood, 31 g ai/ha): 10%

Cc1nn(-c2ccc(C(F)(F)F)cc2)nc1Cc1cccc(C(F)(F)F)c1 [Compound 124]
Plant response rating, Surinam Grass [2, 11]: 5
Plant response rating, Surinam Grass [2, 12]: 10
Plant response rating, Surinam Grass [2, 13]: 15
Plant response rating, Surinam Grass [2, 14]: 20
Plant response rating, Goosegrass [3, 11]: 25
Plant response rating, Goosegrass [3, 12]: 45
Plant response rating, Goosegrass [3, 13]: 55
Plant response rating, Goosegrass [3, 14]: 65
Plant response rating, Windgrass [4, 11]: 50
Plant response rating, Windgrass [4, 12]: 80
Plant response rating, Windgrass [4, 13]: 95
Plant response rating, Windgrass [4, 14]: 98
Plant response rating, Rice [1, 9]: 15
Plant response rating, Rice [1, 10]: 20
Plant response rating, Rice ([1]; Flood, 31 g ai/ha): 0
Plant response rating, Rice ([1]; Flood, 62 g ai/ha): 0

CCc1nn(-c2ccc(C(F)(F)F)cc2)nc1Oc1cccc(OC(F)(F)F)c1 [Compound 125, 4-ethyl-5-[3-(trifluoromethoxy)phenoxy]-2-[4-(trifluoromethyl)phenyl]-2H-1,2,3-triazole]
plant injury at 125 g/ha [1, 9]: 0%
plant injury at 250 g/ha [1, 10]: 10%
plant injury at 31 g/ha ([1]; Flood, 31 g ai/ha): 0%
plant injury at 62 g/ha ([1]; Flood, 62 g ai/ha): 0%

Cc1nn(-c2ccnc(C(F)(F)F)c2)nc1Cc1ccnc(C(F)(F)F)c1 [Compound 137]
Plant response rating, Surinam Grass [2, 12]: 40
Plant response rating, Surinam Grass [2, 13]: 45
Plant response rating, Surinam Grass [2, 14]: 45
Plant response rating, Surinam Grass ([2]; 250 g ai/ha, scale 0 to 100): 45
Plant response rating, Goosegrass [3, 12]: 20
Plant response rating, Goosegrass [3, 13]: 25
Plant response rating, Goosegrass [3, 14]: 65
Plant response rating, Windgrass [4, 12]: 40
Plant response rating, Windgrass [4, 13]: 50
Plant response rating, Windgrass [4, 14]: 70
Plant response rating, Windgrass ([4]; 250 g ai/ha, scale 0 to 100): 90
Plant response rating: Russian Thistle [5, 13]: 85
Plant response rating: Russian Thistle [5, 14]: 85
Plant response rating: Russian Thistle [5, 15]: 90
Plant response rating, Russian Thistle ([5]; 16 g ai/ha, scale 0 to 100): 30
Plant response rating: Speedwell [6, 12]: 70
Plant response rating: Speedwell [6, 13]: 85
Plant response rating: Speedwell [6, 14]: 95
Plant response rating: Speedwell [6, 15]: 100
Plant response rating, Speedwell ([6]; 16 g ai/ha, scale 0 to 100): 70
Plant response rating: Wheat, Spring [7, 12]: 5
Plant response rating: Wheat, Spring [7, 13]: 10
Plant response rating: Wheat, Spring [7, 14]: 20
Plant response rating: Wheat, Spring [7, 15]: 25
Plant response rating, Wheat, Spring ([7]; 16 g ai/ha, scale 0 to 100): 0
Plant response rating: Barley, Winter [8, 12]: 5
Plant response rating: Barley, Winter [8, 13]: 5
Plant response rating: Barley, Winter [8, 14]: 1
Plant response rating: Barley, Winter [8, 15]: 10
Plant response rating, Barley, Winter ([8]; 16 g ai/ha, scale 0 to 100): 0
